The values that follow come from patent US7560475B2, “Phenylacetic acid derivative, process for producing the same, and use” (Ono Pharmaceutical Co., Ltd., priority 2003, dated 2009).

Each structure is given as a SMILES string.

In one assay the test system is 7-weeks old male mice. The assay can be described thus: Lowering effect of blood cholesterol and blood lipid in mice loaded with high cholesterol diets. The class given is in vivo. As to conditions: high cholesterol diet mice, plasma, vehicle administration group defined as 100%. The procedure:
High cholesterol diets (CRF-1 solid pellet mixed of 5.5% peanut oil, 1.5% cholesterol, 0.5% cholic acid, Oriental Bio Service) are loaded to 7-weeks old male mice for six days and then the body weight of food-deprived […] are measured, the following various parameter levels are measured. The measurement items are LDL, HDL, TG level, NEFA, and TC level. Mice are divided into five per group based on TC level and the division was performed without bias in the average of other parameters. From the next day to six days in a row, the suspended solution of the compounds in vehicle (0.5% methylcellulose aqueous solution) are orally compellingly administered once daily and the loading of high cholesterol diets is continued. After the next day of termination of final administration (the 7th day of administration onset), plasma lipid (TG HDL, LDL, NEFA, TC level) is measured.
The relative activity of the compounds of the present invention was calculated under the condition that the value of vehicle administration group was defined as 100%. And then HDL cholesterol elevating effect and LDL cholesterol lowering effect of the compound prepared in Example 33 are shown in Table 2.

A further assay deals with T1, human PPAR δ (Homo sapiens, UniProt Q03181).
T1 construct: expressed in transfected cells; host or cells: CV-1 cells
T1 sequence (Q03181 139-441): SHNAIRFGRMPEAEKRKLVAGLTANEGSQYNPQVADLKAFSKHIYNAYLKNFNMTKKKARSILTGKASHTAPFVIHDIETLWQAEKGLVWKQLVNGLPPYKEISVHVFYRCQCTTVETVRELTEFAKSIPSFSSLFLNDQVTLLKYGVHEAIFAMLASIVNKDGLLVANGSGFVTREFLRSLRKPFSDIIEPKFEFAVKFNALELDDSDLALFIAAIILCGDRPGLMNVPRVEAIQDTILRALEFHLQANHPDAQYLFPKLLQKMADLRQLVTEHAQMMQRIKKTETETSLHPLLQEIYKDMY
The assay can be described thus: Luciferase assay using human PPAR δ (Gal4-PPAR chimeric receptor reporter in CV-1 cells). The class given is cell-based. As to conditions: relative to 30 μM carbacyclin defined as 1, 42 hours.

Setting [1] is: dose 3 mg/kg orally once daily for six days.
[2] abbreviates: dose 10 mg/kg orally once daily for six days.
The mark [3] stands for this setting: dose 30 mg/kg orally once daily for six days.

For the molecule `Cc1sc(N2CCC(C(F)(F)F)CC2)nc1CCOc1cccc(CC(=O)O)c1F` [Example 33, [2-fluoro-3-(2-{5-methyl-2-[4-(trifluoromethyl)piperidin-1-yl]-1,3-thiazol-4-yl}ethoxy)phenyl]acetic acid], the entries for the “HDL cholesterol elevating effect” value in the assay on 7-weeks old male mice (setting [1]), in the assay on 7-weeks old male mice (setting [2]) and in the assay on 7-weeks old male mice (setting [3]) were 150.0%, 162.7% and 157.3%, respectively. Moreover, the entries for the “LDL cholesterol lowering effect” value in the assay on 7-weeks old male mice (setting [1]), with 7-weeks old male mice (setting [2]) and with 7-weeks old male mice (setting [3]) were 82.5%, 75.7% and 72.3%, respectively. The “Fold increase of transcriptional activation” value was 0.47 at human PPAR δ (final concentration 0.1 μM), 1.08 on human PPAR δ (final concentration 0.3 μM) and 1.23 on human PPAR δ (final concentration 1.0 μM).
